Data taken from patent US20260355196A1, “INHIBITORS AND DEGRADERS OF PIP4K PROTEIN” (Larkspur Biosciences, Inc., priority 2023, published 2026).

molecular target: T1, PIP4K2C (Homo sapiens, UniProt Q8TBX8); experiment: HiBiT PIP4K2C degradation assay in MOLT-4 cells (endogenous PIP4K2C C-terminally tagged with HiBiT); type: cell-based; parameters: untagged in primary human PBMCs and monocyte-derived dendritic cells; conditions: 6 hours of incubation time, rather than 24 hours; MOLT-4, top concentration 10 micromolar; read-out: HiBIT-degradation MOLT4 PIP4k2C DC50 (6 hours, marked *)
T1 sequence (Q8TBX8 1-421): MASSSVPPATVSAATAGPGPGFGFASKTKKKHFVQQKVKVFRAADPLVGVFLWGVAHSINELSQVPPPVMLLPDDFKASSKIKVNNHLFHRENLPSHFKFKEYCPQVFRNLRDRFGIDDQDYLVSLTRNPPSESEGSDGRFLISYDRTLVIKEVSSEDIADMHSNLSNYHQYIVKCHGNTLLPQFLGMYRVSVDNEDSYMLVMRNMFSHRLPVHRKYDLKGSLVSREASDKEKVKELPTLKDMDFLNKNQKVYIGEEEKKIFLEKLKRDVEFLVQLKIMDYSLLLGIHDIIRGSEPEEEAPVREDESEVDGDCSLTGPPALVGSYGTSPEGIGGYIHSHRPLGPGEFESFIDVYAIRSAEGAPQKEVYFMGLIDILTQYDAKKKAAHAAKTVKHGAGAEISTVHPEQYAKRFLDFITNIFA
Summary of the method: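 MOLT-4 cells with endogenous PIP4K2C C-terminally HiBiT-tagged by CRISPR were treated with a 10-point, 3-fold dilution series from 10 micromolar, in duplicate, for 24 h or 6 h at 37 C. Remaining tagged protein read by HiBiT lytic luminescence; DC50 from Hill-equation fit.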

| Structure (SMILES) | DC50 [nM] |
| --- | --- |
| O=C1CCC(Nc2ccc(N3CCN(CC4(O)CCN(C(=O)[C@H]5CC[C@H](Nc6ncc(F)c(-c7cccc(C8CC8)c7)n6)CC5)CC4)CC3)c(F)c2)C(=O)N1 (stereo partly drawn) [Compound 492, trans-3-((4-(4-((1-(4-((4-(3-cyclopropylphenyl)-5-fluoropyrimidin-2-yl)amino)cyclohexane-1-carbonyl)-4-hydroxypiperidin-4-yl)methyl)piperazin-1-yl)-3-fluorophenyl)amino)piperidine-2,6-dione] | < 500 |
| O=C1CCC(Nc2ccc(N3CCN(CC4(O)CCN(C(=O)[C@H]5CC[C@H](Nc6ncc(F)c(-c7cccc(N8CCCCC8)c7)n6)CC5)CC4)CC3)c(F)c2)C(=O)N1 (stereo partly drawn) [Compound 493, trans-3-[3-fluoro-4-[4-[[1-[4-[[5-fluoro-4-[3-(1-piperidyl)phenyl]pyrimidin-2-yl]amino]cyclohexanecarbonyl]-4-hydroxy-4-piperidyl]methyl]piperazin-1-yl]anilino]piperidine-2,6-dione] | < 500 |
| O=C1CCC(Nc2ccc(N3CCC(N4CCC(NC(=O)[C@H]5CC[C@H](Nc6ncc(F)c(-c7cccc(N8CCCCC8=O)c7)n6)CC5)CC4)C(F)(F)C3)c(F)c2)C(=O)N1 (stereo partly drawn) [Compound 494, trans-N-(1′-(4-((2,6-dioxopiperidin-3-yl)amino)-2-fluorophenyl)-3′,3′-difluoro-[1,4′-bipiperidin]-4-yl)-4-((5-fluoro-4-(3-(2-oxopiperidin-1-yl)phenyl)pyrimidin-2-yl)amino)cyclohexane-1-carboxamide] | < 500 |
| O=C1CCC(Nc2ccc(N3CCC(N4CCC(NC(=O)[C@H]5CC[C@H](Nc6ncc(F)c(-c7cccc(N8CCCOC8=O)c7)n6)CC5)CC4)C(F)(F)C3)c(F)c2)C(=O)N1 (stereo partly drawn) [Compound 495, trans-N-(1′-(4-((2,6-dioxopiperidin-3-yl)amino)-2-fluorophenyl)-3′,3′-difluoro-[1,4′-bipiperidin]-4-yl)-4-((5-fluoro-4-(3-(2-oxo-1,3-oxazinan-3-yl)phenyl)pyrimidin-2-yl)amino)cyclohexane-1-carboxamide] | < 500 |
| O=C1CCC(Nc2ccc(N3CCC(N4CCC(NC(=O)[C@H]5CC[C@H](Nc6ncc(F)c(-c7cccc(N8CCOCC8=O)c7)n6)CC5)CC4)C(F)(F)C3)c(F)c2)C(=O)N1 (stereo partly drawn) [Compound 496, trans-N-(1′-(4-((2,6-dioxopiperidin-3-yl)amino)-2-fluorophenyl)-3′,3′-difluoro-[1,4′-bipiperidin]-4-yl)-4-((5-fluoro-4-(3-(3-oxomorpholino)phenyl)pyrimidin-2-yl)amino)cyclohexane-1-carboxamide] | < 500 |
| O=C1CCC(Nc2ccc(N3CCC(N4CCC(C(=O)N[C@H]5CC[C@H](Nc6ncc(F)c(-c7cccc(C8CC8)c7)n6)CC5)CC4)C(F)(F)C3)c(F)c2)C(=O)N1 (stereo partly drawn) [Compound 497, trans-N-(4-((4-(3-cyclopropylphenyl)-5-fluoropyrimidin-2-yl)amino)cyclohexyl)-1′-(4-((2,6-dioxopiperidin-3-yl)amino)-2-fluorophenyl)-3′,3′-difluoro-[1,4′-bipiperidine]-4-carboxamide] | < 500 |
| O=C1CCC(Nc2ccc(N3CCC(N4CCC(C(=O)N[C@H]5CC[C@H](Nc6ncc(F)c(-c7cccc(N8CCCCC8)c7)n6)CC5)CC4)C(F)(F)C3)c(F)c2)C(=O)N1 (stereo partly drawn) [Compound 498, trans-1′-(4-((2,6-dioxopiperidin-3-yl)amino)-2-fluorophenyl)-3′,3′-difluoro-N-(4-((5-fluoro-4-(3-(piperidin-1-yl)phenyl)pyrimidin-2-yl)amino)cyclohexyl)-[1,4′-bipiperidine]-4-carboxamide] | < 500 |
| O=C1CCC(Nc2ccc(N3CCC(N4CCC(C(=O)N[C@H]5CC[C@H](Nc6ncc(F)c(-c7cccc(N8CCCCC8=O)c7)n6)CC5)CC4)C(F)(F)C3)c(F)c2)C(=O)N1 (stereo partly drawn) [Compound 499, trans-1′-(4-((2,6-dioxopiperidin-3-yl)amino)-2-fluorophenyl)-3′,3′-difluoro-N-(4-((5-fluoro-4-(3-(2-oxopiperidin-1-yl)phenyl)pyrimidin-2-yl)amino)cyclohexyl)-[1,4′-bipiperidine]-4-carboxamide] | < 500 |
| O=C1CCC(Nc2ccc(N3CCC(N4CCC(C(=O)N[C@H]5CC[C@H](Nc6ncc(F)c(-c7cccc(N8CCCOC8=O)c7)n6)CC5)CC4)C(F)(F)C3)c(F)c2)C(=O)N1 (stereo partly drawn) [Compound 500, trans-1′-(4-((2,6-dioxopiperidin-3-yl)amino)-2-fluorophenyl)-3′,3′-difluoro-N-(4-((5-fluoro-4-(3-(2-oxo-1,3-oxazinan-3-yl)phenyl)pyrimidin-2-yl)amino)cyclohexyl)-[1,4′-bipiperidine]-4-carboxamide] | < 500 |
| O=C1CCC(Nc2ccc(N3CCC(N4CCC(C(=O)N[C@H]5CC[C@H](Nc6ncc(F)c(-c7cccc(N8CCOCC8=O)c7)n6)CC5)CC4)C(F)(F)C3)c(F)c2)C(=O)N1 (stereo partly drawn) [Compound 501, trans-1′-(4-((2,6-dioxopiperidin-3-yl)amino)-2-fluorophenyl)-3′,3′-difluoro-N-(4-((5-fluoro-4-(3-(3-oxomorpholino)phenyl)pyrimidin-2-yl)amino)cyclohexyl)-[1,4′-bipiperidine]-4-carboxamide] | < 500 |
| O=C1CCC(Nc2ccc(N3CCC(N4CCC(C(=O)N[C@H]5CC[C@H](Nc6ncc(F)c(-c7cccc(C8CC8)c7)n6)CC5)CC4)C(F)C3)c(F)c2)C(=O)N1 (stereo partly drawn) [Compound 502, N-((1r,4r)-4-((4-(3-cyclopropylphenyl)-5-fluoropyrimidin-2-yl)amino)cyclohexyl)-1′-(4-((2,6-dioxopiperidin-3-yl)amino)-2-fluorophenyl)-3′-fluoro-[1,4′-bipiperidine]-4-carboxamide] | < 500 |
| O=C1CCC(Nc2ccc(C3CCN([C@H]4CC[C@H](NC(=O)[C@H]5CC[C@H](Nc6ncc(F)c(-c7cccc(C8CC8)c7)n6)CC5)CC4)CC3)c(F)c2)C(=O)N1 (stereo partly drawn) [Compound 503, trans-4-((4-(3-cyclopropylphenyl)-5-fluoropyrimidin-2-yl)amino)-N-(trans-4-(4-(4-((2,6-dioxopiperidin-3-yl)amino)-2-fluorophenyl)piperidin-1-yl)cyclohexyl)cyclohexane-1-carboxamide] | < 500 |

More lines, now with the values ahead:

| DC50 [nM] | Structure (SMILES) |
| --- | --- |
| < 500 | O=C1CCC(Nc2ccc(N3CCN(CC4CCN(C(=O)[C@H]5CC[C@H](Nc6ncc(F)c(-c7cccc(-c8ccccc8)c7)n6)CC5)CC4)CC3)c(F)c2)C(=O)N1 (stereo partly drawn) [Compound 485, trans-3-((4-(4-((1-(4-((4-([1,1′-biphenyl]-3-yl)-5-fluoropyrimidin-2-yl)amino)cyclohexane-1-carbonyl)piperidin-4-yl)methyl)piperazin-1-yl)-3-fluorophenyl)amino)piperidine-2,6-dione] |
| < 500 | O=C1CCC(Nc2ccc(C3CCN(CC4(F)CCN(C(=O)[C@H]5CC[C@H](Nc6ncc(F)c(-c7cccc(-n8ccccc8=O)c7)n6)CC5)CC4)CC3)c(F)c2)C(=O)N1 (stereo partly drawn) [Compound 487, trans-3-((3-fluoro-4-(1-((4-fluoro-1-(4-((5-fluoro-4-(3-(2-oxopyridin-1(2H)-yl)phenyl)pyrimidin-2-yl)amino)cyclohexane-1-carbonyl)piperidin-4-yl)methyl)piperidin-4-yl)phenyl)amino)piperidine-2,6-dione] |
| < 500 | CN(C(=O)[C@H]1CC[C@H](Nc2ncc(F)c(-c3cccc(-n4ccccc4=O)c3)n2)CC1)[C@H]1CC[C@H](N2CCN(c3ccc(NC4CCC(=O)NC4=O)cc3F)CC2)CC1 (stereo partly drawn) [Compound 488, trans-(1r,4R)—N-((1r,4R)-4-(4-(4-((2,6-dioxopiperidin-3-yl)amino)-2-fluorophenyl)piperazin-1-yl)cyclohexyl)-4-((5-fluoro-4-(3-(2-oxopyridin-1(2H)-yl)phenyl)pyrimidin-2-yl)amino)-N-methylcyclohexane-1-carboxamide] |
| < 500 | Cn1nc(C2CCC(=O)NC2=O)c2ccc(N3CCN(C[C@H]4CC[C@H](C(=O)N[C@H]5CC[C@H](Nc6ncc(F)c(-c7cccc(-n8ccccc8=O)c7)n6)CC5)CC4)CC3)cc21 (stereo partly drawn) [Compound 489, trans-(1r,4R)-4-((4-(3-(2,6-dioxopiperidin-3-yl)-1-methyl-1H-indazol-6-yl)piperazin-1-yl)methyl)-N-((1r,4R)-4-((5-fluoro-4-(3-(2-oxopyridin-1(2H)-yl)phenyl)pyrimidin-2-yl)amino)cyclohexyl)cyclohexane-1-carboxamide] |
| < 500 | O=C1CCC(Nc2ccc(N3CCN([C@H]4CC[C@H](NC(=O)[C@H]5CC[C@H](Nc6ncc(F)c(-c7cccc(N8CCCOC8=O)c7)n6)CC5)CC4)CC3)c(F)c2)C(=O)N1 (stereo partly drawn) [Compound 490, trans-N-(trans-4-(4-(4-((2,6-dioxopiperidin-3-yl)amino)-2-fluorophenyl)piperazin-1-yl)cyclohexyl)-4-((5-fluoro-4-(3-(2-oxo-1,3-oxazinan-3-yl)phenyl)pyrimidin-2-yl)amino)cyclohexane-1-carboxamide] |
| < 500 | O=C1CCC(Nc2ccc(N3CCN(CC4(F)CCN(C(=O)[C@H]5CC[C@H](Nc6ncc(F)c(-c7cccc(N8CCCCC8)c7)n6)CC5)CC4)CC3)c(F)c2)C(=O)N1 (stereo partly drawn) [Compound 491, trans-3-((3-fluoro-4-(4-((4-fluoro-1-(4-((5-fluoro-4-(3-(piperidin-1-yl)phenyl)pyrimidin-2-yl)amino)cyclohexane-1-carbonyl)piperidin-4-yl)methyl)piperazin-1-yl)phenyl)amino)piperidine-2,6-dione] |
